This note sets out measurements from paper PMC3368905, “Inhibition of Ion Channels and Heart Beat in Drosophila by Selective COX-2 Inhibitor SC-791” (PLoS ONE, 2012).

This test addresses T1, Shab channel (IKS, delayed rectifier, Drosophila Kv2) (Drosophila melanogaster, UniProt P17970).
T1 construct: native channel in larval body-wall muscles (fiber 12)
T1 sequence (P17970 1-1015): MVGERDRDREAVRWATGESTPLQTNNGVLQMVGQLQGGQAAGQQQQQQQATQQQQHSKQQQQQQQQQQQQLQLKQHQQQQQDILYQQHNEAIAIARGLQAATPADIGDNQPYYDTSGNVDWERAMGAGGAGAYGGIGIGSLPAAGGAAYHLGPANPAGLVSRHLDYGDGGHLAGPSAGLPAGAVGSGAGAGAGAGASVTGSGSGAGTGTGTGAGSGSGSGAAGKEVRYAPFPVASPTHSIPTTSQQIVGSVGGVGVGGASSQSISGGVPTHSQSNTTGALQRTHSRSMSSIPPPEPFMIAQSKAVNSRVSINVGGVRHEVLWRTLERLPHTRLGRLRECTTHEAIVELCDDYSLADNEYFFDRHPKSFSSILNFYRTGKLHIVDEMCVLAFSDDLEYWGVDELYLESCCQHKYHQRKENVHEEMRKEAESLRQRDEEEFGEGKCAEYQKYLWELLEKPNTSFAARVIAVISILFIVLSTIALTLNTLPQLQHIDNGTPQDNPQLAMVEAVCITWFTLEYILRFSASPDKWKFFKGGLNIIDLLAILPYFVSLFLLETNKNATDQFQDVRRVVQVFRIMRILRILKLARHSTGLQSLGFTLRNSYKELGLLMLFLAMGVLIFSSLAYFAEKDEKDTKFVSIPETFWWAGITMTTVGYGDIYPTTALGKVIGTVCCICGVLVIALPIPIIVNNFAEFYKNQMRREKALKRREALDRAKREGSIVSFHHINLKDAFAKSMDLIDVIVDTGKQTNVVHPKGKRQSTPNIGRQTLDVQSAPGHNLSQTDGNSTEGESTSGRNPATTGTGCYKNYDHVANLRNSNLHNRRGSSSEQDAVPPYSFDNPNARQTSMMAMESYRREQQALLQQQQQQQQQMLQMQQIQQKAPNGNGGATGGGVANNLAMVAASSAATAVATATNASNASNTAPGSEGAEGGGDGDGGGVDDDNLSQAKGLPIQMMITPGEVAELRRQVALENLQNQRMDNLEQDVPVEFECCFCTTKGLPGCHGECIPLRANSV
Nature of the test: two-microelectrode voltage clamp of native IKS in larval muscle. The format is cell-based.

pIC50: −log10 of the molar value.

As for `NS(=O)(=O)c1ccc(-c2c(-c3ccccc3)noc2C(F)F)cc1` [SC-791], the pIC50 (in general, −log10 of the IC50, conventionally taken in molar units) is 4.68.
